Measurements from patent US20230340101A1, “METHODS FOR TREATING OR PREVENTING ALLERGIC ASTHMA BY ADMINISTERING AN IL-33 ANTAGONIST AND/OR AN IL-4R ANTAGONIST” (SANOFI BIOTECHNOLOGY, priority 2019, published 2023).
“Also recorded” adds a separate entry of the source.

Columns and labels:
[1] = tested on: BAC-induced inflammatory gene expression signatures in sputum; experiment: Bronchial allergen challenge (BAC) with HDM in patients with mild allergic asthma: gene expression signatures (mRNA) in induced sputum; type: in vivo, human; conditions: for eosinophil gene signature scores: FIG. 14, post bronchial allergen challenge, across treatment arms; for allergen-induced eosinophilic signature and broader type 2 inflammatory signature, including CCL26, CCL17, and SIGLEC8: monotherapy, REGN3500 IV 10 mg/kg single dose, dupilumab SC 600 mg day 1, 300 mg day 15, sputum after BAC
Description: Bronchial allergen challenge involves patient inhalation of allergen that results in a biphasic airway response, which is characterized by an early (30 minutes to 2 hours post-allergen challenge) and a late (approximately 3 to 8 hours post-allergen challenge) decline in forced expiratory volume over 1 second (FEV1).
Enrolled patients undergo BAC during the screening period, and at 4 and 8 weeks after administration of the first doses of study drug(s). The effects of the study drugs on BAC-induced lung inflammation are assessed via measurements of sputum molecular signatures (mRNAs and proteins). The sputum molecular signatures are assessed before BAC (baseline) and after BAC (post-BAC) at screening and at weeks 4 and 8 after treatment initiation (FIG. 1). The BAC-induced difference in the sputum signatures before and after BAC are evaluated at screening (screening change) and at weeks 4 and 8 post-treatment (week 4 change and week 8 change) will be observed. Since both REGN3500 and dupilumab display long half-lives, BAC change is evaluated at both week 4 and week 8 in the current study, to monitor the durability of the potential impact of study drug treatment on airway inflammation. The effect of study drug treatment on induced sputum gene signatures is evaluated by the difference between the BAC-induced screening change and the BAC-induced week 4 change (screening to week 4 change) and by the difference between the BAC-induced screening change and the BAC-induced week 8 change (screening to week 8 change).
Part 1 of this study is a randomized, double-blind, placebo-controlled, double-dummy parallel group study in mild persistent allergic asthmatic patients to assess the effect of REGN3500, dupilumab, REGN3500 plus dupilumab combination, or placebo on lung inflammation (as measured by sputum cytokine mRNAs) and measurements of the late phase inflammatory airway response to a BAC using HDM. Patients are randomized to one of the following treatment groups: REGN3500 (IV single dose); dupilumab (SC 2 doses, Q2W); combination REGN3500 (IV single dose) plus dupilumab (SC 2 doses, Q2W), and placebo (IV single dose and SC 2 doses, Q2W).
Because the treatment groups in this study include a first clinical dosing of REGN3500 plus dupilumab combination, Part 1 is performed in 2 phases to address any potential safety issues. The first 8 patients are randomized 1:1:1:1 to receive study drug. On day 1: patients in the REGN3500 group receive REGN3500 IV 10 mg/kg, followed by dupilumab-matching placebo SC, patients in the dupilumab group receive REGN3500-matching placebo IV followed by a loading dose of dupilumab SC 600 mg (2 injections of 300 mg), patients in the REGN3500 plus dupilumab combination will receive REGN3500 10 mg/kg IV, followed by dupilumab SC 600 mg (2 injections of 300 mg), and patients in the placebo group will receive REGN3500-matching placebo IV, followed by 2 injections of dupilumab-matching placebo SC.
On day 15 (week 2), patients assigned to the dupilumab group or the REGN3500 plus dupilumab combination group receive dupilumab SC 300 mg and all other patients receive dupilumab-matching placebo SC.
All enrolled patients return to the clinic on day 24± 2 days and on day 52 ± 2 days to provide a baseline induced sputum sample. If an adequate sputum sample cannot be obtained, patients may return 72 hours later for a second attempt to produce baseline sputum. Pre-BAC sputum collection must occur at least 72 hours prior to the BAC. Seventy-two hours after the baseline induced sputum sample is collected, on day 29 ± 2 days and on day 57 ± 2 days, respectively, patients return to the clinic, and measurements of FEV1, and FeNO are performed prior to undergoing BAC with HDM. Sputum induction is performed 8 hours and 24 hours after inhaled BAC at both the days 29 ± 2 (week 4) and 57 ± 2 days (week 8) visits. […]

[2] = tested on: blood eosinophils, neutrophils, circulating type 2 inflammatory mediators; experiment: BAC study: blood eosinophils, neutrophils and circulating type 2 inflammatory mediators; type: in vivo, human
Description: Circulating Biomarkers: circulating biomarker samples are collected at time points according to Table 1 and Table 2. Biomarker measurements are performed in serum and plasma samples to determine effects on biomarkers of inflammatory diseases pathobiology or relevant physiological and pathogenic processes. The biomarkers studied are ones believed to be relevant to the pathophysiology of diseases, target engagement, mechanism of action of REGN3500 (and/or combination therapy) and possible toxicities. Biomarkers studied in the blood may include but need not be limited to, IL-33, soluble ST2, calcitonin, and MMP12.

[3] = tested on: HDM-driven lung inflammation; experiment: Chronic house dust mite (HDM) model of lung inflammation; type: in vivo; conditions: FIG. 5; for pro-inflammatory cytokines and chemokines (lung panel hIL-4, IL-5, IL-1b, TNFα, IFNg, GROa, MCP-1): chronic HDM model; for inflammation in chronic HDM model of lung inflammation (lung eosinophils, lung neutrophils): with and without anti-IL-33 treatment
Excerpt: Data is presented showing levels of lung eosinophils and lung neutrophils in the HDM model with and without anti-IL-33 treatment. A heat map of a lung cytokine gene panel is presented showing levels of hIL-4, IL-5, IL-1b, TNFα, IFNg, GROa, and MCP-1. Alveolar SMA testing data is presented as well.
Treatment with REGN3 500 suppressed pro-inflammatory cytokines and chemokines. […] Other data presented includes a heat map of lung of cytokine panel showing levels of hIL-4, IL-5, IL-1b, TNFα, IFNg, GROa, and MCP-1. Alveolar SMA testing was also performed.

| Substance | eosinophil gene signature scores [1] | genes suppressed by REGN3500 (many of them) ([1]; albeit with different dynamics) | allergen-induced eosinophilic signature and broader type 2 inflammatory signature, including CCL26, CCL17, and SIGLEC8 [1] | neutrophils ([2]; in vivo) | other circulating type 2 inflammatory mediators ([2]; in vivo) | blood eosinophils ([2]; pharmacodynamic effect) | pro-inflammatory cytokines and chemokines (lung panel hIL-4, IL-5, IL-1b, TNFα, IFNg, GROa, MCP-1) ([3]; listed as REGN3 500) | pro-inflammatory cytokines and chemokines (lung panel hIL-4, IL-5, IL-1b, TNFα, IFNg, GROa, MCP-1) ([3]; listed as anti-IL-33) | inflammation in chronic HDM model of lung inflammation (lung eosinophils, lung neutrophils) [3] | inflammation in chronic HDM model of lung inflammation (lung eosinophils, lung neutrophils) ([3]; listed as anti-IL-33) | type 2 inflammatory cytokine and chemokine genes induced by BAC (IL-5, IL-13, Eot-3 (CCL26), TARC (CCL17), CCL1, FCER2, SIGLEC8) ([1]; FIG. 9, genes induced at 8 or 24 hours after allergen challenge, sputum) | eosinophil signature genes in sputum (ADARB1, ASB2, CLC, HDC, IL1RL1, PTPN7, SIGLEC8, SYNE1, VSTM1) ([1]; FIG. 11) | neutrophil signature genes ([1]; FIG. 11, sputum) | type 2 inflammatory signature genes in sputum (IL-4, IL-13, CCL26, CCL13, CCL17, CCL11, POSTN, IL-5, IL-9) ([1]; FIG. 12) | decrease of type 2 signature scores ([1]; FIG. 15, compared with the fluticasone treatment arm) | allergic asthma signature genes (BC042385 ... RHOH) ([1]; FIG. 16, at 8 and/or 24 hours post BAC) | top allergic asthma signature genes induced by BAC at 24 hours (ASAP1-IT1 ... CCL17, CCL13, CCL26, SIGLEC8, IL13, IL5, PTGDS, RD3) ([1]; FIG. 17, screening vs treatment) |
| --- | --- | --- | --- | --- | --- | --- | --- | --- | --- | --- | --- | --- | --- | --- | --- | --- | --- |
| dupilumab: human anti-IL-4R antibody; HCVR/LCVR SEQ ID NOs: 27 and 28, heavy/light chain SEQ ID NOs: 29 and 30 [reference compound] | able to reduce | also suppressed | significantly inhibited | – | – | – | – | – | – | – | – | – | – | – | – | – | – |
| REGN3500: human anti-IL-33 antibody; HCVR/LCVR SEQ ID NOs: 2 and 10, heavy/light chain SEQ ID NOs: 18 and 20 | able to reduce | – | significantly inhibited | No anti-IL-33 mediated reduction | no anti-IL-33 mediated reduction | reduction in blood eosinophils was a consistent pharmacodynamic effect | suppressed | suppresses | reduced inflammation | reduces inflammation | suppressed | suppressed; also recorded: suppression | No anti-IL-33 (REGN3500) treatment-mediated effects were noted; also recorded: did not have an effect | suppressed; also recorded: suppression | lower decrease | affected | suppressed |
